Measurements reported in ChEMBL document CHEMBL1201862, “PubChem BioAssay data set” (2004).
Activity calls are given as the source filed them.

Tests used:
Estrogen receptor = biological target: T1, Estrogen receptor (Homo sapiens, UniProt P03372); assay: blockers of SRC-3 recruitment to ERα – biochemical, ELISA, streptavidin-HRP readout, orthogonal assay, confirmation (AID 1079)
T1 sequence (P03372 whole entry): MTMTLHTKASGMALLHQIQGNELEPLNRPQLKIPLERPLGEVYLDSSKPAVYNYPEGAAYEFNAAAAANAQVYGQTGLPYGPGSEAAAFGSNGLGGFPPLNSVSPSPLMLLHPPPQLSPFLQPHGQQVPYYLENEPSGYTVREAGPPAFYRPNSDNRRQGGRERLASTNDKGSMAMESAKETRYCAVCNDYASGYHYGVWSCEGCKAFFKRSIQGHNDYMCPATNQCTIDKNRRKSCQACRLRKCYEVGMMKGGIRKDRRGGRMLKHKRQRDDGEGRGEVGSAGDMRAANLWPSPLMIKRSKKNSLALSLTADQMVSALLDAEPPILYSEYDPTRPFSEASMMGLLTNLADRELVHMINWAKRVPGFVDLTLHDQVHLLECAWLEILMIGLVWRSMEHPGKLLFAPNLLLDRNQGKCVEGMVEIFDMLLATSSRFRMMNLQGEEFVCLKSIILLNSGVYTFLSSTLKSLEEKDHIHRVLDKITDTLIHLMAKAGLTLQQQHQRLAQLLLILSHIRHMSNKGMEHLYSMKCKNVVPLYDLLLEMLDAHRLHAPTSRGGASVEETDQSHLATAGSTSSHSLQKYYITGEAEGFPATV

[1] = biological target: Mothers against decapentaplegic homolog 3 (Homo sapiens, UniProt P84022); assay: blockers of Smad3 complex formation in lysate – cell lysate, secondary confirmation, chemiluminescent ELISA, HEK293 lysate, dose response (AID 1058); assay type: functional
[2] = biological target: Lysosomal acid glucosylceramidase (Homo sapiens, UniProt P04062); assay: Dose response cell-based high throughput screening assay to identify enhancers of beta-glucosidase activity. [Related pubchem assays: 784 ]; assay type: functional
Staphylococcus aureus = assay: Inhibitors of Bacterial Quorum Sensing Structure Activity Relationship (SAR) Analysis: Dose Response Assay. [Related pubchem assays: 700, 527 ]; assay type: functional, organism-based
[3] = biological target: T2, Photoreceptor-specific nuclear receptor (Homo sapiens, UniProt Q9Y5X4); assay type: functional
[4] = biological target: Peroxisome proliferator-activated receptor gamma/Nuclear receptor corepressor 2 (Homo sapiens, UniProt P37231+Q9Y618); assay type: functional
[5] = NIH-3T3 fibroblast cytotoxicity, dose response, cytotoxicity control, cell-based, fluorescence, Alamar Blue, secondary assay (AID 2327); assay type: functional;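 note: NIH-3T3 mouse fibroblasts cultured with fluconazole at 8 µg/mL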
[6] = biological target: T3, Short transient receptor potential channel 4 (Mus musculus, UniProt Q9QUQ5); assay: block of DAMGO-driven TRPC4 calcium entry – cell-based, HEK293 TRPC4/mu-opioid, Fluo-4 calcium, dose response (AID 434942); assay type: functional;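 note: potency of inhibitors blocking the TRPC4 calcium response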
T3 sequence (Q9QUQ5 whole entry): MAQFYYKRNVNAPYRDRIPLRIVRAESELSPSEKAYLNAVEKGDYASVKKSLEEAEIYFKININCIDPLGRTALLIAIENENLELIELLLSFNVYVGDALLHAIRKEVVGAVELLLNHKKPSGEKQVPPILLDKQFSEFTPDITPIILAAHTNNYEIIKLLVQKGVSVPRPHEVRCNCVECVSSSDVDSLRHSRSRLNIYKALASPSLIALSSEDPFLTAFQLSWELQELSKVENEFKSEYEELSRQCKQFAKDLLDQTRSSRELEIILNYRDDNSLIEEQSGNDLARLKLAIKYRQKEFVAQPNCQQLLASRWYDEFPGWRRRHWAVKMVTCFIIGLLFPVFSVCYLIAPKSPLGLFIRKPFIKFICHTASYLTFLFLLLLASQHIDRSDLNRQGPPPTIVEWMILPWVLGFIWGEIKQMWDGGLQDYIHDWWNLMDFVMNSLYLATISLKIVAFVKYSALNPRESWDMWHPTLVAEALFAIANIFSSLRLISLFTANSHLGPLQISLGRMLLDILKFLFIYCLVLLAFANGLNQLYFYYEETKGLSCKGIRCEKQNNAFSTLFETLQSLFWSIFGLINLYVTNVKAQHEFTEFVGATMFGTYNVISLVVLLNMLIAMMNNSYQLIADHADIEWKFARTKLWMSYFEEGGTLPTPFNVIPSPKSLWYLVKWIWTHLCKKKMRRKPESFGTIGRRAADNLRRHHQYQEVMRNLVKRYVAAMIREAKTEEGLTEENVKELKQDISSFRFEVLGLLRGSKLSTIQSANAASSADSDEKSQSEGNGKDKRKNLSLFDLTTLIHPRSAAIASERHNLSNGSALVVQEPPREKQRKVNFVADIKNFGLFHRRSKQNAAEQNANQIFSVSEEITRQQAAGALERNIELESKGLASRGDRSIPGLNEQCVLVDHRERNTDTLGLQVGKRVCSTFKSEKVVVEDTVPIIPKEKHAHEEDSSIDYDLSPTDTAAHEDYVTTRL

INS1 = assay: INS-1E survival protection against cytokine death – cell-based, luminescence, retest, dose response (AID 449756); assay type: functional; settings: Rattus norvegicus;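 note: cell death triggered by IL-1 beta plus TNF-alpha plus IFN-gamma mixture; protective hits raise ATP signal compared with cytokine alone wells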
[7] = fluconazole-exposed Candida albicans growth modulators – fluorescence, retest, confirmation (AID 2467); assay type: functional, cell-based
[8] = biological target: T2, Photoreceptor-specific nuclear receptor; assay type: functional, cell-based
cells [9] = assay type: functional, cell-based
[10] = CCR5-tropic HIV-1 fusion blockers – cell-based, CCR5-tropic Env, dose response (AID 2279); assay type: functional
[11] = microbe, parasite or virus in culture; assay type: functional; settings: Mycobacterium tuberculosis
cells [12] = assay type: functional, cell-based; remark: listed apart in the source
Nonstructural protein 1 = Nonstructural protein 1 (Influenza A virus, UniProt Q194T2); assay type: functional, Influenza A virus (A/California/07/2009(H1N1))
[13] = biological target: T3, Short transient receptor potential channel 4; assay: calcium entry via TRPC4 opening agents – cell-based, HEK293 TRPC4/mu-opioid, Fluo-4 calcium, dose response (AID 434937); assay type: functional
[14] = biological target: T4, Neuropeptides B/W receptor type 1 (Homo sapiens, UniProt P48145); assay: Fluorescence-based dose response cell-based high throughput screening assay to identify antagonists of the G-protein coupled receptor 7 (GPR7). [Related pubchem assays: 1952 (Screening assay (GPR7 antagonists).), 1880 (Summary AID.)]; assay type: functional
T4 sequence (P48145 whole entry): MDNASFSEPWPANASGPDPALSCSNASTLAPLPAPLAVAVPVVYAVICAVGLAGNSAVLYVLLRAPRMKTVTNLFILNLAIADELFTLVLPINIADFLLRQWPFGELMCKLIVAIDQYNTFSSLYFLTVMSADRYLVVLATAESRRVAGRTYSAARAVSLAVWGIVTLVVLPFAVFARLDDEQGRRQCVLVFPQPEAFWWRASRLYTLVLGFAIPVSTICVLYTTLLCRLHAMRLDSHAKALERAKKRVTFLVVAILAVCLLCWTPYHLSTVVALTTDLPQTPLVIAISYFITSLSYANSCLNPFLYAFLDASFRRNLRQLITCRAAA

[15] = biological target: Melanin-concentrating hormone receptor 1 (Homo sapiens, UniProt Q99705); assay: Fluorescence-based counterscreen for antagonists of the G-protein coupled receptor 7 (GPR7): cell-based high throughput dose response assay to identify antagonists of the melanin-concentrating hormone receptor 1 (MCHR1).; assay type: functional
Cytochrome P450 2C9 = Cytochrome P450 2C9 (Homo sapiens, UniProt P11712); settings: Potency
Cytochrome P450 2D6 = Cytochrome P450 2D6 (Homo sapiens, UniProt P10635); assay: qHTS Assay for Inhibitors and Substrates of Cytochrome P450 2D6. [Related pubchem assays: 410 ]; assay type: ADME; settings: read-out: Potency
[16] = biological target: T5, Tyrosine-protein phosphatase non-receptor type 7 (Homo sapiens, UniProt P35236); assay type: functional
T5 sequence (P35236 whole entry): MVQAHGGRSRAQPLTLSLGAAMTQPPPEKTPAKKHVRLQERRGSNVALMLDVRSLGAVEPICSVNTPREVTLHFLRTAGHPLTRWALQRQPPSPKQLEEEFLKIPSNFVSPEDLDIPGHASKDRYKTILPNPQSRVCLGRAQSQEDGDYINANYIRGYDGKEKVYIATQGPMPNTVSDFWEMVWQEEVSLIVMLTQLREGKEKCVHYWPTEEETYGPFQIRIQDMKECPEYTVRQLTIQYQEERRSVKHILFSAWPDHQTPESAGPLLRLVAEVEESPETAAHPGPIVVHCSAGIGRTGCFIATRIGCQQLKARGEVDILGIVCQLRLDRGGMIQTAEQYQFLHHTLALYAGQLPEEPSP

[17] = biological target: Glyceraldehyde-3-phosphate dehydrogenase (Homo sapiens, UniProt P04406)
[18] = biological target: T6, Dual specificity protein phosphatase 6 (Rattus norvegicus, UniProt Q64346); assay type: functional
T6 sequence (Q64346 whole entry): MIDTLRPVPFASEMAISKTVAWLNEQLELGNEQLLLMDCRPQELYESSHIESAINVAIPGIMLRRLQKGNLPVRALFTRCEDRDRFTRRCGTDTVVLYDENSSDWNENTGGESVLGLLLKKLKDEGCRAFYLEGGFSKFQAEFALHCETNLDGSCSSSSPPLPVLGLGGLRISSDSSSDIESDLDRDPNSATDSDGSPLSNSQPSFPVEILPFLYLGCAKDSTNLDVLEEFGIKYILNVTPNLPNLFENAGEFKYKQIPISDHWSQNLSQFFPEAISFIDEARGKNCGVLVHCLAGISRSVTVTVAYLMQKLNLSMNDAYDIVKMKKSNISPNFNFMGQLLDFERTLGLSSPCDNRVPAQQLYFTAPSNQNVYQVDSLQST

[19] = biological target: Heat shock 70 kDa protein 1A (Homo sapiens, UniProt P0DMV8); assay: inhibition of Hsp70 binding activity – biochemical, fluorescence polarization, SAR follow-up (AID 1072)
[20] = biological target: Heat shock cognate 71 kDa protein (Homo sapiens, UniProt P11142); assay: In Vitro Hsc70 Dose Response Fluorescence Polarization Assay. [Related pubchem assays: 1072 ]
[21] = biological target: T6, Dual specificity protein phosphatase 6
Streptococcus = assay: Luminescence Microorganism-Based Dose Response Follow up to Identify Compounds Cytotoxic to Streptococcus. [Related pubchem assays: 1677 (Project Summary), 1915, 1914, 1902 (Retest at Dose), 1900 (Counter Screen), 1662 (Primary HTS)]; assay type: functional, organism-based
[22] = biological target: T7, Eukaryotic translation initiation factor 2-alpha kinase 3 (Homo sapiens, UniProt Q9NZJ5); assay: Dose response cell-based high-throughput screening assay to measure PERK inhibition. [Related pubchem assays: 1416 ]; assay type: functional
[23] = biological target: T7, Eukaryotic translation initiation factor 2-alpha kinase 3; assay: Counterscreen assay for PERK inhibitors: Dose response cell-based high throughput screening assay to measure inhibition of PERK at 6 hours. [Related pubchem assays: 1522, 1416 ]; assay type: functional
[24] = biological target: Serine/threonine-protein phosphatase PP1-alpha catalytic subunit (Homo sapiens, UniProt P62136); assay: inhibition of protein phosphatase 1 activity – biochemical, fluorescence, dose response (AID 2403);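 note: phosphatase turnover of OMFP into fluorescent 3-O-methylfluorescein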
[25] = viability of PTEN-deleted HCT116 cells – cell-based, HCT116 PTEN knockout, dose response (AID 1047); assay type: functional;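 note: HCT116 colon tumor cells with PTEN knocked out; cells exposed to compound for 60 hours before readout; potency for loss of cell viability measured by luminescence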
[26] = viability of HCT116 lacking mutant beta-catenin – cell-based, human colon tumor, dose response (AID 1045); assay type: functional;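 note: HCT116 colon tumor cells with beta catenin knocked out; cells exposed to compound for 60 hours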
[27] = biological target: Serine/threonine-protein phosphatase (Homo sapiens, UniProt Q9BPW0); assay: Counterscreen for inhibitors of PP1: fluorescence-based biochemical high throughput dose response assay to identify inhibitors of Protein Phosphatase 5 (PP5). [Related pubchem assays: 2034 (Summary (PP5 inhibitors)), 1987 (PP5 inhibitors in singlate), 2235 (PP1 inhibitors in singlate)]
Sequence of Serine/threonine-protein phosphatase (Q9BPW0 whole entry): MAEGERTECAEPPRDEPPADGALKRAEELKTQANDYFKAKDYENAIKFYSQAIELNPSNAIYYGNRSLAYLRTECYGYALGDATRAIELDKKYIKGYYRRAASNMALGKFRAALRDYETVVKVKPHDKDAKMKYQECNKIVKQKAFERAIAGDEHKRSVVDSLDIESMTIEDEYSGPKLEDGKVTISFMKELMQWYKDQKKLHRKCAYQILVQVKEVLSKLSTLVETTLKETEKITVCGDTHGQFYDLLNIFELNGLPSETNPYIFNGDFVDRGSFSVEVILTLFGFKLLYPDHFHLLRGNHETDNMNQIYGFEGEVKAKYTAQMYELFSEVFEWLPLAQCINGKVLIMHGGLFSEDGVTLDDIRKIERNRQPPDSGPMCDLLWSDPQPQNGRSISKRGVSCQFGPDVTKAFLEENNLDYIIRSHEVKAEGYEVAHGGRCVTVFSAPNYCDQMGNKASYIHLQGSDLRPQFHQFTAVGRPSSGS

T2 sequence (Q9Y5X4 whole entry): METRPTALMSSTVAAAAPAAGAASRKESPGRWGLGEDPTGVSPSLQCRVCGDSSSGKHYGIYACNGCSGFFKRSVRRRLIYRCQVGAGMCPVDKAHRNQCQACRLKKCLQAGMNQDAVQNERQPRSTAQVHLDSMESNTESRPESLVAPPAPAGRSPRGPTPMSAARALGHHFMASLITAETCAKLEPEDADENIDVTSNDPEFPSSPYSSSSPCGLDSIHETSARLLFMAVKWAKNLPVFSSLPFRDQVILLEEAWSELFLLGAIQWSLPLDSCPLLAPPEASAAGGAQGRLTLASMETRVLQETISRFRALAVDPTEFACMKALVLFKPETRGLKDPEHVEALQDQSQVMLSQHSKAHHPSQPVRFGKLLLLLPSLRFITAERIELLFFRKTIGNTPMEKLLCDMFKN
T7 sequence (Q9NZJ5 whole entry): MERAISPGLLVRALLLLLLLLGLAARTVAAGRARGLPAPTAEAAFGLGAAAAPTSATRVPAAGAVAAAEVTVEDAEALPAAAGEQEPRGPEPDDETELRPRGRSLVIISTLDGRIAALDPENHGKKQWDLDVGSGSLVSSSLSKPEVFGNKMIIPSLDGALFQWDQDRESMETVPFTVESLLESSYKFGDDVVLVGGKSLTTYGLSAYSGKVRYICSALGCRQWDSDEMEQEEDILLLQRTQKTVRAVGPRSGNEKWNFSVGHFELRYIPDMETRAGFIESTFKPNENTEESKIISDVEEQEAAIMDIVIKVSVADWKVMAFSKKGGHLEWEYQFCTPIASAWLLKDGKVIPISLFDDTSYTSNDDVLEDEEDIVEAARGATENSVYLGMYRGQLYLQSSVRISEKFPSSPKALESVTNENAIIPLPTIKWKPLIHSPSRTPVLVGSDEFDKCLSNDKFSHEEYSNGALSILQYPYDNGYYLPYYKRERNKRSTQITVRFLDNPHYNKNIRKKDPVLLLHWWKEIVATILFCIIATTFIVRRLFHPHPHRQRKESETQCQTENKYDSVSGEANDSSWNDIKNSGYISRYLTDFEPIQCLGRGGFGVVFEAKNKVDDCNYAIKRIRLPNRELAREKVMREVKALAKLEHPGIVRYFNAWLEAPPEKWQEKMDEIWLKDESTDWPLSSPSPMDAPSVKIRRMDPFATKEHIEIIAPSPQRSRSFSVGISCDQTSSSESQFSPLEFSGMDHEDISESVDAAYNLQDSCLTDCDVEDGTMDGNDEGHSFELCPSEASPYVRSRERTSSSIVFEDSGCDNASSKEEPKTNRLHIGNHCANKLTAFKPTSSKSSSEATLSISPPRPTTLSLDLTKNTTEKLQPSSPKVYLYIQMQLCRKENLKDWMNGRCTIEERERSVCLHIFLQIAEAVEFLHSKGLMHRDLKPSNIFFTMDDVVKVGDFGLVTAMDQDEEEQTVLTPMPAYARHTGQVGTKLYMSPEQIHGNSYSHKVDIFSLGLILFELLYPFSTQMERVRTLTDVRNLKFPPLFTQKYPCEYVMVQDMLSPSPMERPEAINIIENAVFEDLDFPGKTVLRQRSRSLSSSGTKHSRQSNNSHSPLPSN
Sequence of Serine/threonine-protein phosphatase PP1-alpha catalytic subunit (P62136 whole entry): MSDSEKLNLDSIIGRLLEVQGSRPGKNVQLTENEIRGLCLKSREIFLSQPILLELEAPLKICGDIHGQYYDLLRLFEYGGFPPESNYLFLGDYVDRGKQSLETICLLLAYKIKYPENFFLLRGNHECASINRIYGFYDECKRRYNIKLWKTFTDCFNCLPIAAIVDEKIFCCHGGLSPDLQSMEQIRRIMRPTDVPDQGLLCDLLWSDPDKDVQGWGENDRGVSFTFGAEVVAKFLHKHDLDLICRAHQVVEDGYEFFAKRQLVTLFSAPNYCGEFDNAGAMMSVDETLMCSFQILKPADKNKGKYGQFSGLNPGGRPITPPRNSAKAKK
Sequence of Nonstructural protein 1 (Q194T2 whole entry): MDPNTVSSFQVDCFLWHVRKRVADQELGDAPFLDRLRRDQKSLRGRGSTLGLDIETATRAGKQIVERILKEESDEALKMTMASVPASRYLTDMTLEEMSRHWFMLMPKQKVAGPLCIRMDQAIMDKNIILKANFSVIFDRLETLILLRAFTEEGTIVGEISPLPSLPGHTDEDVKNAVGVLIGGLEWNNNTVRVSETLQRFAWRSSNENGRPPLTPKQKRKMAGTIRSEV
Sequence of Glyceraldehyde-3-phosphate dehydrogenase (P04406 whole entry): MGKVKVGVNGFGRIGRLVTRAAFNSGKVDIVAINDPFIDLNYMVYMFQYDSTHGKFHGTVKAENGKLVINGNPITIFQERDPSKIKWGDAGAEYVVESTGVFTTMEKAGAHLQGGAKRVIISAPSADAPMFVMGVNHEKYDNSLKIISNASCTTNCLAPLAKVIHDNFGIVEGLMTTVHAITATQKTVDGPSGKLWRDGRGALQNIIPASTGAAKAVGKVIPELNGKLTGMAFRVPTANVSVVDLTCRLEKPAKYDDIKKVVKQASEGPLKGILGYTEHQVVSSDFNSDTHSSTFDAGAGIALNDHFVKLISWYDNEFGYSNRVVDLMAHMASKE
Sequence of Lysosomal acid glucosylceramidase (P04062 whole entry): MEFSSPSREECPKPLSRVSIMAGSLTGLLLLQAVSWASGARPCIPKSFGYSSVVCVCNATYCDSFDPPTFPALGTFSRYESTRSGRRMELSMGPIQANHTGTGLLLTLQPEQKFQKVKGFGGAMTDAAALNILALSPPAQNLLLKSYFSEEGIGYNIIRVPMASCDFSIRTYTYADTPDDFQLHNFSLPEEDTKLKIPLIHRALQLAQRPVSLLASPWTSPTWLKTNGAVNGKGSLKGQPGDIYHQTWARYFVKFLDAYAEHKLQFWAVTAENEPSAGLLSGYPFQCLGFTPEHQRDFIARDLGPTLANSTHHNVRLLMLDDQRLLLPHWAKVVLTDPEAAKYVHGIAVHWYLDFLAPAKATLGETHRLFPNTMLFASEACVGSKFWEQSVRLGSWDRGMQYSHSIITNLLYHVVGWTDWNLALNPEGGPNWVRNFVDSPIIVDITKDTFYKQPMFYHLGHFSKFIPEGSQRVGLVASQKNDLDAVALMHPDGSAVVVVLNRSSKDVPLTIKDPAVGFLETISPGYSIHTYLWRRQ
Sequence of Mothers against decapentaplegic homolog 3 (P84022 whole entry): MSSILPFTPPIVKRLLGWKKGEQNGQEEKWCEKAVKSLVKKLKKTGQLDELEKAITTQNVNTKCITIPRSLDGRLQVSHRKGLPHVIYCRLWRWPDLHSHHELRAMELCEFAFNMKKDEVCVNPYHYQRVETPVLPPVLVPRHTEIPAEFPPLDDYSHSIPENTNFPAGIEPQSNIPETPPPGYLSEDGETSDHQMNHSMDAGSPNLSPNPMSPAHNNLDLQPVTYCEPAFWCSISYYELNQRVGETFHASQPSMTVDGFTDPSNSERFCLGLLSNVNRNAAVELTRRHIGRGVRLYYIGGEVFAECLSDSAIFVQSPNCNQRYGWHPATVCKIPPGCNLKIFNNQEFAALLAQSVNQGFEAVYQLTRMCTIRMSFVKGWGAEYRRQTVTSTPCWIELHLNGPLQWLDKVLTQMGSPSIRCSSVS
Sequence of Cytochrome P450 2D6 (P10635 whole entry): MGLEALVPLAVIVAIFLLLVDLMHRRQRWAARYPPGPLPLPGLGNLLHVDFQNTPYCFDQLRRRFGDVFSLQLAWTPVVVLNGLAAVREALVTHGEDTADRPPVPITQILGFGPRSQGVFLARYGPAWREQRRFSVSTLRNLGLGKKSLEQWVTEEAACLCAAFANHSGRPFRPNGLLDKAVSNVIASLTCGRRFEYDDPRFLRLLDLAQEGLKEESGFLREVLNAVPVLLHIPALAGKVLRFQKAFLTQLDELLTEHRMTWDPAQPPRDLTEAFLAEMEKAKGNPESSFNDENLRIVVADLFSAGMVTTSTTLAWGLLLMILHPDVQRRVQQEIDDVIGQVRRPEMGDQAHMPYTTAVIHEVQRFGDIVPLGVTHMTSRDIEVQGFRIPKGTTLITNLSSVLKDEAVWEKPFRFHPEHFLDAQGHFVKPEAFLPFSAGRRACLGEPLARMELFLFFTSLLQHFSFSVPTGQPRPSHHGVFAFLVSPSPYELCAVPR
Sequence of Cytochrome P450 2C9 (P11712 whole entry): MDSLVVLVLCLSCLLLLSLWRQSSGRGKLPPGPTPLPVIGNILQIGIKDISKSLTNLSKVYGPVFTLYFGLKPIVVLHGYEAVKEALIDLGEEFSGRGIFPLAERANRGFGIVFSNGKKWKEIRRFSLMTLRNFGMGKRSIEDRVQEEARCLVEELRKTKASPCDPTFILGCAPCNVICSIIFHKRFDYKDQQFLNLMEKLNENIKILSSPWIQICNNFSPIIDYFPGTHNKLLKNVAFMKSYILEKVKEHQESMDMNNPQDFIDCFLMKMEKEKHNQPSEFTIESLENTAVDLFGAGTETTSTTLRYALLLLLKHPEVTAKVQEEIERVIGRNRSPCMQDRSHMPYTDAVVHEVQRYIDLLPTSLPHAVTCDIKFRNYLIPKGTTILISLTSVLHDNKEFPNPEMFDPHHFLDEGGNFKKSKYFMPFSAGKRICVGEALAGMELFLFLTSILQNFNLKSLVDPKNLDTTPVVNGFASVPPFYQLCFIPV

## O=C(CCCCCn1c(=S)[nH]c2ccccc2c1=O)N1CCN(c2ccc(C(F)(F)F)cc2)CC1
Estrogen receptor
  IC50: 42.8 µM (not active)

## Oc1cc2c(cc1C(c1ccc3c(c1)OCO3)N1CCOCC1)OCO2 (centres undefined)
[1]
  IC50: > 40 µM (not active)

## CC1=C(C(=O)Nc2cccnc2)C(c2ccncc2)n2nnnc2N1 (centres undefined)
[2]
  EC50: > 50 µM (not active)

## COc1ccccc1N1CCN(C(CNC(=O)c2cccc(Cl)c2)c2cccnc2)CC1 (centres undefined)
Staphylococcus aureus
  IC50: 0.457 µM (active)

## CCNC(=S)Nc1nc2c(cc1C(=O)OCC)CCCC2
[3]
  IC50: > 39.8 µM (not active)
[4]
  IC50: 32.7 µM (not active)

## Brc1ccc(N/N=C(/N=Nc2nn[nH]n2)c2ccccc2)cc1
[5]
  EC50: 2.55 µM (inconclusive)
[6]
  EC50: 7.5 µM (active)
INS1
  AC50: 1.77 µM (active)
[7]
  EC50: > 38 µM (not active)
[8]
  IC50: 6.49 µM (active)
Cells [9]
  EC50: 47.2 µM (active)
[10]
  IC50: 9.87 µM (active)
[11]
  CC50: 7.7 µM (active)
Cells [12]
  EC50: 86.5 µM (active)
Nonstructural protein 1
  IC50: 6 µM (active)

## CC(NCCC1(Cc2ccccc2Cl)CCOC(C)(C)C1)c1cccs1 (centres undefined)
[13]
  EC50: 5.31 µM (active)
[14]
  IC50: 12.7 µM (not active)
[15]
  IC50: 13.3 µM (not active)

## CN(C)c1ccc(C(=C2C=CC(=[N+](C)C)C=C2)c2c(O)c(S(=O)(=O)[O-])cc3cc(S(=O)(=O)O)ccc23)cc1
Cytochrome P450 2C9
  AC50: 2.51 µM (inconclusive)
Cytochrome P450 2D6
  AC50: 3.16 µM (inconclusive)

## O=C(O)C1Nc2ccc([N+](=O)[O-])cc2C2C=CCC12 (centres undefined)
[16]
  IC50: 7.58 µM (active)
[17]
  IC50: 97.4 µM (active)
[18]
  IC50: 47.5 µM (active)
[19]
  IC50: 6.06 µM (active)
[20]
  IC50: 48.4 µM (active)
[21]
  IC50: 52 µM (active)

## O=C(CSc1ccncc1)N1c2ccccc2Sc2ccccc21
Streptococcus
  EC50: > 500 µM (not active)

## Cn1nc(C(F)(F)F)c(-c2ccccc2)c1NC(=O)CCC(=O)O
[22]
  EC50: > 55.7 µM (not active)
[23]
  EC50: > 55.7 µM (not active)

## COc1ccc2c(Cl)c(C(=O)N/N=C/c3ccc4c(c3)OCO4)sc2c1
[24]
  IC50: 5.11 µM (active)
[25]
  EC50: 20.7 µM (active)
[26]
  EC50: 25.4 µM (active)
[27]
  IC50: > 67 µM (not active)
